Here are results for 28 compounds from patent US9359338B2, “Cyclopropanecarboxamido-substitute aromatic compounds as anti-tumor agents” (Crown Bioscience Inc. (Taiwan), priority 2012, dated 2016).

For assay [1], the target named is KDR kinase (790-1356 AA) (Homo sapiens (Human), UniProt P35968). Briefly: Inhibitory activity at KDR kinase (Lance Ultra Ulight-TK assay). The class given is biochemical. On the procedure:
Inhibitory Activity of Compounds at KDR Kinase
• [Experimental method]: Use Lance@Ultra Ulight™-TK assay kit from PerKinElmer to evaluate the inhibitory activity of compounds at KDR kinase. • [Instrument]: PerKinElmer's ENVISION plate reader • [Materials]: Optiplate-384 well plate (PerKinElmer), kinase buffer (50 mM Hepes pH7.5, 0.25 mM EGTA, 2 mM DTT, 0.01% Tween 20, 10 mM Mg^2+, 0.5 mM Mn^2+), KDR kinase (790-1356 AA, Crown Bioscience), KDR kinase substrate (PerKinElmer catalogue # TRF0127-M), Lance@Eu-W1024-anti-phosphotyrosine (PT66) (PerKinElmer, catalogue #AD0068), ATP (Invitrogen), DMSO (Sigma, catalogue #34869), purified water (Millipore, type: Milli-Q). • [Study conditions]: Mix KDR (final concentration: 20 nM) and compound (final DMSO: 0.5%), pre-incubate for 20 min at 30° C.; then add ATP (final concentration: 90 μM) and the substrate (final concentration […]). React for 2 hrs at 30° C. After the reaction, add antibody and reaction for 60 min at 30° C. Read the plate (615 nm, 665 nm), calculate the ratio of the value at 665 nm vs 615 nm and analyze the data. • [Samples]: Compounds in the examples and Sorafenib (positive control) • [Data Analysis]: Use CBIS data analysis software to calculate IC50 values

Assay [2] has as its system PLC-PRF-5 cells. As to the kind of experiment: Inhibition of proliferation of PLC-PRF-5 cells (ATPlite). It counts as cell-based. Particulars: Homo sapiens, PLC-PRF-5, PLC-PRF-5 cells; read-out: PLC-PRF-5 cell proliferation IC50. From the text:
Inhibitory Activity of Compounds to the Proliferation of PLC-PRF-5 Cells
• [experimental Method]: Use PerKinElmer's ATPlite™ Luminescence ATP Detection Assay System to evaluate the inhibitory activity of compounds to the proliferation of PLC-PRF-5 cells. • [Instruments]: ENVISION plate reader (PerKinElmer) and centrifuge (Thermo Scientific, Sorvall ST16R) • [material]: PLC-PRF-5 cells (ATCC), 96-well plate (Nunc, #165305), DMEM medium (Gibco, #11965-092), PBS (Invitrogen, #10010023), fetal bovine serum (Gibco, #16000044), DMSO (Sigma, #D2650), ATPlite™ Luminescence ATP Detection Assay System (PerkinElmer, #6016949), purified water (Millipore, type: Milli-Q). • [Protocol]: Grow PLC-PRF-5 cells in DMEM supplemented with 10% FBS. When the cells reach 80% confluency, collect cells by trypsinization and centrifugation at 800 rpm for 3 min. Resuspend cells with appropriate volume of medium and count cell numbers. Adjust cell concentration to 50000 cells/mL, and split 160 μL cell suspension per well into 96-well plates. Transfer the plates into cell culture incubator (37° C., 5% CO2) and incubate cells for 2 hrs. Prepare compound serial dilutions in culture medium with total 8 compound concentrations at 3-fold serial dilutions (the final top concentration starts from 30 μM). Dispense 40 μL of each test compound dilution into corresponding wells with DMSO at 0.3% final concentration. Continue incubating cells in cell culture incubator for additional 96 hrs at 37° C., 5% CO2. Discard culture medium, and wash cells once with PBS. Add 50 μL cell lysis buffer per well and shake plates for 5 min at room temperature to ensure complete lysis of cells. Then add 50 μL of substrate solution and shake plates for 1 min at room temperature. Allow the plates to incubate at room temperature for 5 min, followed by recording the luminescence signals using Envision, and subsequent data analysis. • [Samples]: Compounds in the examples and Sorafenib (positive control) • [Data analysis]: Use CBIS data analysis software to calculate IC50 values

In assay [3] the test system is pERK in MDA-MB-231 cells. Briefly: Inhibitory activity at pERK (In Cell Western, MDA-MB-231 cells). The class given is cell-based. Particulars: Homo sapiens, MDA-MB-231, MDA-MB-231 cells; read-out: MDA-MB-231 pERK IC50. On the procedure:
Inhibitory Activity of Compounds at pERK
When the cells reach 80% confluency, collect cells by trypsinization and centrifugation at 800 rpm for 3 minutes. Resuspend cells with appropriate volume of medium and count cell numbers. Adjust cell concentration to 70000 cells/mL, and split 100 μL cell suspension per well into 96-well plates. Transfer the plates into cell culture incubator (37° C., 5% CO2) and incubate cells overnight. Discard the medium, wash with PBS once, Prepare compound serial dilutions in culture medium with total 8 compound concentrations at 3-fold serial dilutions (the final top concentration starts from 30 μM). Dispense 75 μL DMEM medium (with 0.1% BSA) and 25 μL of each test compound dilution into corresponding wells with DMSO at 0.3% final concentration. Continue incubating cells in cell culture incubator for additional 2 hrs at 37° C., 5% CO2. Discard culture medium, and wash cells once with PBS. Add 100 μL of 4% formaldehyde solution to each well and fix for 20 min. Discard the formaldehyde, then add 100 μL ice-cold 100% methanol at 4° C. for 20 min. Discard methanol, wash with PBS three times. Add to each well 100 μL of 2% BSA solution, seal for 30 min at room temperature. Discard the BSA solution, add to each well 50 μL of the 1st antibody solution (prepared with 2% BSA, 1:250 dilution), incubate at 4° C. overnight. Discard the 1^St antibody solution, wash with PBS four times. Add to each well […] the 2nd antibody solution (prepared with 1% BSA, 1:1000 dilution), incubate at room temperature for 1 hr. Discard the 2nd antibody solution, wash with PBS four times, add to each well 100 μL PI solution (1.5 μM), incubate at room temperature for 30 min. Use Acumen (TPP) to measure the fluorescence. • [Samples]: Compounds in the examples and sorafenib (positive control) • [Data Analysis]: Use CBIS data analysis software to calculate IC50 values

A value given as a limit tells only on which side of the number the result lay.

Chain of KDR kinase (790-1356 AA) (P35968 790-1356): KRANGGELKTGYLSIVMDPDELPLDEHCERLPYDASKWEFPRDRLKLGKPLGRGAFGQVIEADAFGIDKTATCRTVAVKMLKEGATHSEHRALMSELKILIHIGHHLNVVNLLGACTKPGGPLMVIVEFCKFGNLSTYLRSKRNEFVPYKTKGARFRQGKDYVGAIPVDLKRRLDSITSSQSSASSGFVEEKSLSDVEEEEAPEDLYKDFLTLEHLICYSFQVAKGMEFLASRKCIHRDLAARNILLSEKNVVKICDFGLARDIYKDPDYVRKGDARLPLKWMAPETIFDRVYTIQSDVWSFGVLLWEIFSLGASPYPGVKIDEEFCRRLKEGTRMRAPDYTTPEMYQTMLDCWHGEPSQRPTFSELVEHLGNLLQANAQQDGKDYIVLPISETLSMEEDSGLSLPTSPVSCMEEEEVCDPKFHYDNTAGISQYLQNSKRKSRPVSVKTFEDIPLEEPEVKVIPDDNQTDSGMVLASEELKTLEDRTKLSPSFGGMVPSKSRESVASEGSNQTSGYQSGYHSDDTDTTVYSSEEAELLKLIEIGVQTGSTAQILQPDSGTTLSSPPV

Take `Cc1cc(NC(=O)Nc2ccc(F)c(C(F)(F)F)c2)cc(Oc2cc(NC(=O)C3CC3)ncn2)c1` [Exe. 092]: the IC50 in assay [1] is 192 nM; in assay [2], 17200 nM; in assay [3], 57 nM.
For `Cc1cc(NC(=O)Nc2cccc(C(F)(F)F)c2)cc(Oc2cc(NC(=O)C3CC3)ncn2)c1` [Exe. 094], in that order: 200 nM, 19000 nM and 163 nM.
For `Cc1cc(NC(=O)Nc2cccc(OC(F)(F)F)c2)cc(Oc2cc(NC(=O)C3CC3)ncn2)c1` [Exe. 095], in that order: 434 nM, 19200 nM and 82 nM.
The like results for `Cc1cc(NC(=O)Nc2ccc(Cl)c(C(C)(F)F)c2)cc(Oc2cc(NC(=O)C3CC3)ncn2)c1` [Exe. 096] were, in that order, 624 nM, 21000 nM and 28 nM.
For `O=C(Nc1cc(F)cc(Oc2cc(NC(=O)C3CC3)ncn2)c1)Nc1ccc(F)c(C(F)(F)F)c1` [Exe. 097], the IC50 was determined as 62.8 nM in assay [1], 9100 nM in assay [2] and 137 nM in assay [3].
As to `O=C(Nc1cc(F)cc(Oc2cc(NC(=O)C3CC3)ncn2)c1)Nc1cc(F)cc(C(F)(F)F)c1` [Exe. 098], the results for the IC50 in assay [1], in assay [2] and in assay [3] were 105 nM, 8400 nM and 752 nM, respectively.
Regarding `CC(F)(F)c1cc(NC(=O)Nc2cc(F)cc(Oc3cc(NC(=O)C4CC4)ncn3)c2)ccc1Cl` [Exe. 099], the IC50 in assay [1] came out at 41 nM; in assay [2], 15000 nM; in assay [3] it was 37 nM.
Regarding `O=C(Nc1ccc(Oc2cc(NC(=O)C3CC3)ncn2)cc1)Nc1ccc(F)c(C(F)(F)F)c1` [Exe. 100], the IC50 in assay [1] stood at 9 nM; in assay [2], 2420 nM; in assay [3] it was 300 nM.
For `O=C(Nc1ccc(Oc2cc(NC(=O)C3CC3)ncn2)cc1)Nc1cc(F)cc(C(F)(F)F)c1` [Exe. 101], in that order: 12.5 nM, 2600 nM and 682 nM.
For `O=C(Nc1cccc(C(F)(F)F)c1)Nc1ccc(Oc2cc(NC(=O)C3CC3)ncn2)c(F)c1` [Exe. 102], in that order: 15 nM, 936 nM and 294 nM.
`CC(F)(F)c1cccc(NC(=O)Nc2ccc(Oc3cc(NC(=O)C4CC4)ncn3)c(F)c2)c1` [Exe. 103]: the IC50 was 12.4 nM in assay [1], 373 nM in assay [2] and 300 nM in assay [3].
For `CC(F)(F)c1ccc(F)c(NC(=O)Nc2ccc(Oc3cc(NC(=O)C4CC4)ncn3)c(F)c2)c1` [Exe. 104], in that order: 10.2 nM, 100 nM and 252 nM.
For `CC(F)(F)c1cc(NC(=O)Nc2ccc(Oc3cc(NC(=O)C4CC4)ncn3)c(F)c2)ccc1F` [Exe. 106], in that order: 10.4 nM, 850 nM and 465 nM.
The like results for `Cc1cc(NC(=O)Nc2ccc(F)c(C(F)(F)F)c2)ccc1Oc1cc(NC(=O)C2CC2)ncn1` [Exe. 111] were, in that order, 7 nM, 2630 nM and 41 nM.
On to `Cc1cc(NC(=O)Nc2cccc(C(F)(F)F)c2)ccc1Oc1cc(NC(=O)C2CC2)ncn1` [Exe. 112], for which the IC50 in assay [1] came out at 14.5 nM; in assay [2], 2000 nM; in assay [3], 85 nM.
As to `Cc1cc(NC(=O)Nc2cccc(OC(F)(F)F)c2)ccc1Oc1cc(NC(=O)C2CC2)ncn1` [Exe. 113], the IC50 in assay [1] was 8.1 nM; in assay [2], 781 nM; in assay [3], 54 nM.
The like results for `Cc1cc(NC(=O)Nc2ccc(Cl)c(OC(F)(F)F)c2)ccc1Oc1cc(NC(=O)C2CC2)ncn1` [Exe. 114] were, in that order, 9.8 nM, 4600 nM and 37 nM.
For the compound `Cc1cc(NC(=O)Nc2cc(F)cc(C(C)(F)F)c2)ccc1Oc1cc(NC(=O)C2CC2)ncn1` [Exe. 115], the IC50 in assay [1] is 9.5 nM; in assay [2] it was 1310 nM; in assay [3], 300 nM.
Consider `Cc1cc(NC(=O)Nc2ccc(Cl)c(C(C)(F)F)c2)ccc1Oc1cc(NC(=O)C2CC2)ncn1` [Exe. 117], for which the figures for the IC50 in assay [1], in assay [2] and in assay [3] were 12 nM, 2930 nM and 27 nM, respectively.
Turning to `O=C(Nc1cccc(Oc2cc(NC(=O)C3CC3)ncn2)c1)Nc1ccc(F)c(C(F)(F)F)c1` [Exe. 119], the IC50 in assay [1] is 14.9 nM; in assay [2], 18800 nM; in assay [3], 184 nM.
Regarding `O=C(Nc1cccc(Oc2cc(NC(=O)C3CC3)ncn2)c1)Nc1cccc(C(F)(F)F)c1` [Exe. 120], the figures for the IC50 in assay [1], in assay [2] and in assay [3] were 12 nM, greater than 30000 nM and 617 nM, respectively.
On to `O=C(Nc1cccc(Oc2cc(NC(=O)C3CC3)ncn2)c1)Nc1cccc(OC(F)(F)F)c1` [Exe. 121], for which the IC50 is 11.5 nM in assay [1], greater than 30000 nM in assay [2] and 252 nM in assay [3].
Take `CC(F)(F)c1cc(NC(=O)Nc2cccc(Oc3cc(NC(=O)C4CC4)ncn3)c2)ccc1Cl` [Exe. 122]: the IC50 came out at 8.7 nM in assay [1], 22000 nM in assay [2] and 133 nM in assay [3].
`CN(c1ccc(NC(=O)Nc2cccc(C(F)(F)F)c2)c(F)c1)c1cc(NC(=O)C2CC2)ncn1` [Exe. 123]: the IC50 came to 7.4 nM in assay [1], 8380 nM in assay [2] and 703 nM in assay [3].
For `O=C(Nc1ccc(Oc2ccnc(NC(=O)C3CC3)c2)nc1)Nc1cc(N2CCC(F)CC2)cc(C(F)(F)F)c1` [Exe. 129], in that order: 14.2 nM, 2260 nM and 105 nM.
On to `CN1CCC(c2cc(NC(=O)Nc3ccc(Oc4ccnc(NC(=O)C5CC5)c4)cn3)cc(C(F)(F)F)c2)CC1` [Exe. 134], for which the IC50 in assay [1] turned out to be 7.8 nM; in assay [2], 199 nM; in assay [3], 33 nM.
Take `O=C(Nc1cccc(C(F)(F)F)c1)Nc1ccc(Oc2ccnc(NC(=O)C3CC3)c2)cn1` [Exe. 135]: the IC50 in assay [1] was 5.8 nM; in assay [2], 100 nM; in assay [3] it was 208 nM.
For `Cc1ccc(NC(=O)Nc2ccc(Oc3ccnc(NC(=O)C4CC4)c3)cc2)cc1C(F)(F)F` [Exe. 140], in that order: 10 nM, 230 nM and 10.6 nM.
